# From the NIST ThermoML archive (doi:10.1021/acs.jced.7b00201)
# ± gives the expanded uncertainty stated by the source.
# Assay: xn = mol fraction of the nth substance listed
# Conditions: 100 kPa, Liquid; for viscosity: Falling or rolling sphere viscometry; for mass density: Vibrating tube method
structure (smiles),measurement,setting,value
OCC1CC1 [cyclopropylmethanol] + CCCCCCCCCCCC,viscosity,"293.15 K, x1 = 0.1039",1.484 ± 0.032 mPa·s
same,viscosity,"293.15 K, x1 = 0.2032",1.521 ± 0.032 mPa·s
same,viscosity,"293.15 K, x1 = 0.3022",1.605 ± 0.034 mPa·s
same,viscosity,"293.15 K, x1 = 0.3997",1.683 ± 0.036 mPa·s
same,viscosity,"293.15 K, x1 = 0.4993",1.884 ± 0.04 mPa·s
same,viscosity,"293.15 K, x1 = 0.5994",2.084 ± 0.044 mPa·s
same,viscosity,"293.15 K, x1 = 0.7",2.335 ± 0.05 mPa·s
same,viscosity,"293.15 K, x1 = 0.797",2.671 ± 0.057 mPa·s
same,viscosity,"293.15 K, x1 = 0.9004",3.205 ± 0.069 mPa·s
same,viscosity,"293.15 K, x1 = 1",4.029 ± 0.086 mPa·s
same,mass density,"293.15 K, x1 = 0.1135",754.8 ± 1 kg/m3
same,mass density,"293.15 K, x1 = 0.2127",761.38 ± 1 kg/m3
same,mass density,"293.15 K, x1 = 0.3059",768.71 ± 1 kg/m3
same,mass density,"293.15 K, x1 = 0.3804",775.49 ± 1 kg/m3
same,mass density,"293.15 K, x1 = 0.5067",789.46 ± 1 kg/m3
same,mass density,"293.15 K, x1 = 0.6019",802.62 ± 1 kg/m3
same,mass density,"293.15 K, x1 = 0.7011",819.64 ± 1 kg/m3
same,mass density,"293.15 K, x1 = 0.7921",839.53 ± 1 kg/m3
same,mass density,"293.15 K, x1 = 0.8991",870.68 ± 1 kg/m3
same,mass density,"293.15 K, x1 = 1",912.99 ± 1 kg/m3
same,viscosity,"298.15 K, x1 = 0.1039",1.354 ± 0.029 mPa·s
same,viscosity,"298.15 K, x1 = 0.2032",1.382 ± 0.029 mPa·s
same,viscosity,"298.15 K, x1 = 0.3022",1.455 ± 0.031 mPa·s
same,viscosity,"298.15 K, x1 = 0.3997",1.52 ± 0.032 mPa·s
same,viscosity,"298.15 K, x1 = 0.4993",1.688 ± 0.036 mPa·s
same,viscosity,"298.15 K, x1 = 0.5994",1.854 ± 0.04 mPa·s
same,viscosity,"298.15 K, x1 = 0.7",2.068 ± 0.044 mPa·s
same,viscosity,"298.15 K, x1 = 0.797",2.35 ± 0.05 mPa·s
same,viscosity,"298.15 K, x1 = 0.9004",2.801 ± 0.06 mPa·s
same,viscosity,"298.15 K, x1 = 1",3.485 ± 0.075 mPa·s
same,mass density,"298.15 K, x1 = 0.1135",751.08 ± 1 kg/m3
same,mass density,"298.15 K, x1 = 0.2127",757.63 ± 1 kg/m3
same,mass density,"298.15 K, x1 = 0.3059",764.92 ± 1 kg/m3
same,mass density,"298.15 K, x1 = 0.3804",771.68 ± 1 kg/m3
same,mass density,"298.15 K, x1 = 0.5067",785.59 ± 1 kg/m3
same,mass density,"298.15 K, x1 = 0.6019",798.72 ± 1 kg/m3
same,mass density,"298.15 K, x1 = 0.7011",815.7 ± 1 kg/m3
same,mass density,"298.15 K, x1 = 0.7921",835.57 ± 1 kg/m3
same,mass density,"298.15 K, x1 = 0.8991",866.69 ± 1 kg/m3
same,mass density,"298.15 K, x1 = 1",908.94 ± 1 kg/m3
same,viscosity,"303.15 K, x1 = 0.1039",1.241 ± 0.026 mPa·s
same,viscosity,"303.15 K, x1 = 0.2032",1.276 ± 0.027 mPa·s
same,viscosity,"303.15 K, x1 = 0.3022",1.325 ± 0.028 mPa·s
same,viscosity,"303.15 K, x1 = 0.3997",1.38 ± 0.029 mPa·s
same,viscosity,"303.15 K, x1 = 0.4993",1.521 ± 0.032 mPa·s
same,viscosity,"303.15 K, x1 = 0.5994",1.662 ± 0.035 mPa·s
same,viscosity,"303.15 K, x1 = 0.7",1.842 ± 0.039 mPa·s
same,viscosity,"303.15 K, x1 = 0.797",2.081 ± 0.045 mPa·s
same,viscosity,"303.15 K, x1 = 0.9004",2.463 ± 0.053 mPa·s
same,viscosity,"303.15 K, x1 = 1",3.037 ± 0.065 mPa·s
same,mass density,"303.15 K, x1 = 0.1135",747.35 ± 1 kg/m3
same,mass density,"303.15 K, x1 = 0.2127",753.86 ± 1 kg/m3
same,mass density,"303.15 K, x1 = 0.3059",761.1 ± 1 kg/m3
same,mass density,"303.15 K, x1 = 0.3804",767.83 ± 1 kg/m3
same,mass density,"303.15 K, x1 = 0.5067",781.69 ± 1 kg/m3
same,mass density,"303.15 K, x1 = 0.6019",794.79 ± 1 kg/m3
same,mass density,"303.15 K, x1 = 0.7011",811.73 ± 1 kg/m3
same,mass density,"303.15 K, x1 = 0.7921",831.56 ± 1 kg/m3
same,mass density,"303.15 K, x1 = 0.8991",862.66 ± 1 kg/m3
same,mass density,"303.15 K, x1 = 1",904.85 ± 1 kg/m3
same,viscosity,"308.15 K, x1 = 0.1039",1.142 ± 0.024 mPa·s
same,viscosity,"308.15 K, x1 = 0.2032",1.171 ± 0.025 mPa·s
same,viscosity,"308.15 K, x1 = 0.3022",1.213 ± 0.026 mPa·s
same,viscosity,"308.15 K, x1 = 0.3997",1.258 ± 0.027 mPa·s
same,viscosity,"308.15 K, x1 = 0.4993",1.378 ± 0.029 mPa·s
same,viscosity,"308.15 K, x1 = 0.5994",1.497 ± 0.032 mPa·s
same,viscosity,"308.15 K, x1 = 0.7",1.65 ± 0.035 mPa·s
same,viscosity,"308.15 K, x1 = 0.797",1.853 ± 0.04 mPa·s
same,viscosity,"308.15 K, x1 = 0.9004",2.176 ± 0.047 mPa·s
same,viscosity,"308.15 K, x1 = 1",2.661 ± 0.057 mPa·s
same,mass density,"308.15 K, x1 = 0.1135",743.6 ± 1 kg/m3
same,mass density,"308.15 K, x1 = 0.2127",750.06 ± 1 kg/m3
same,mass density,"308.15 K, x1 = 0.3059",757.26 ± 1 kg/m3
same,mass density,"308.15 K, x1 = 0.3804",763.96 ± 1 kg/m3
same,mass density,"308.15 K, x1 = 0.5067",777.76 ± 1 kg/m3
same,mass density,"308.15 K, x1 = 0.6019",790.82 ± 1 kg/m3
same,mass density,"308.15 K, x1 = 0.7011",807.72 ± 1 kg/m3
same,mass density,"308.15 K, x1 = 0.7921",827.52 ± 1 kg/m3
same,mass density,"308.15 K, x1 = 0.8991",858.59 ± 1 kg/m3
same,mass density,"308.15 K, x1 = 1",900.74 ± 1 kg/m3
same,viscosity,"313.15 K, x1 = 0.1039",1.055 ± 0.022 mPa·s
same,viscosity,"313.15 K, x1 = 0.2032",1.079 ± 0.023 mPa·s
same,viscosity,"313.15 K, x1 = 0.3022",1.114 ± 0.024 mPa·s
same,viscosity,"313.15 K, x1 = 0.3997",1.153 ± 0.025 mPa·s
same,viscosity,"313.15 K, x1 = 0.4993",1.254 ± 0.027 mPa·s
same,viscosity,"313.15 K, x1 = 0.5994",1.355 ± 0.029 mPa·s
same,viscosity,"313.15 K, x1 = 0.7",1.485 ± 0.032 mPa·s
same,viscosity,"313.15 K, x1 = 0.797",1.658 ± 0.035 mPa·s
same,viscosity,"313.15 K, x1 = 0.9004",1.933 ± 0.041 mPa·s
same,viscosity,"313.15 K, x1 = 1",2.344 ± 0.05 mPa·s
same,mass density,"313.15 K, x1 = 0.1135",739.84 ± 1 kg/m3
same,mass density,"313.15 K, x1 = 0.2127",746.24 ± 1 kg/m3
same,mass density,"313.15 K, x1 = 0.3059",753.4 ± 1 kg/m3
same,mass density,"313.15 K, x1 = 0.3804",760.06 ± 1 kg/m3
same,mass density,"313.15 K, x1 = 0.5067",773.81 ± 1 kg/m3
same,mass density,"313.15 K, x1 = 0.6019",786.82 ± 1 kg/m3
same,mass density,"313.15 K, x1 = 0.7011",803.68 ± 1 kg/m3
same,mass density,"313.15 K, x1 = 0.7921",823.45 ± 1 kg/m3
same,mass density,"313.15 K, x1 = 0.8991",854.48 ± 1 kg/m3
same,mass density,"313.15 K, x1 = 1",896.58 ± 1 kg/m3
same,viscosity,"318.15 K, x1 = 0.1039",0.977 ± 0.021 mPa·s
same,viscosity,"318.15 K, x1 = 0.2032",0.998 ± 0.021 mPa·s
same,viscosity,"318.15 K, x1 = 0.3022",1.028 ± 0.022 mPa·s
same,viscosity,"318.15 K, x1 = 0.3997",1.06 ± 0.023 mPa·s
same,viscosity,"318.15 K, x1 = 0.4993",1.146 ± 0.024 mPa·s
same,viscosity,"318.15 K, x1 = 0.5994",1.232 ± 0.026 mPa·s
same,viscosity,"318.15 K, x1 = 0.7",1.343 ± 0.029 mPa·s
same,viscosity,"318.15 K, x1 = 0.797",1.491 ± 0.032 mPa·s
same,viscosity,"318.15 K, x1 = 0.9004",1.725 ± 0.037 mPa·s
same,viscosity,"318.15 K, x1 = 1",2.074 ± 0.044 mPa·s
